Measured values reported in patent US20240217961A1 (MONOPTEROS THERAPEUTICS, INC., priority 2021, published 2024).

Key:
Type in all cases: in vitro ADME
CYP2C8 = biological target: T1, CYP2C8 (Homo sapiens, UniProt P10632); test: CYP phenotyping, recombinant CYP enzyme incubation
T1 sequence (P10632 1-490): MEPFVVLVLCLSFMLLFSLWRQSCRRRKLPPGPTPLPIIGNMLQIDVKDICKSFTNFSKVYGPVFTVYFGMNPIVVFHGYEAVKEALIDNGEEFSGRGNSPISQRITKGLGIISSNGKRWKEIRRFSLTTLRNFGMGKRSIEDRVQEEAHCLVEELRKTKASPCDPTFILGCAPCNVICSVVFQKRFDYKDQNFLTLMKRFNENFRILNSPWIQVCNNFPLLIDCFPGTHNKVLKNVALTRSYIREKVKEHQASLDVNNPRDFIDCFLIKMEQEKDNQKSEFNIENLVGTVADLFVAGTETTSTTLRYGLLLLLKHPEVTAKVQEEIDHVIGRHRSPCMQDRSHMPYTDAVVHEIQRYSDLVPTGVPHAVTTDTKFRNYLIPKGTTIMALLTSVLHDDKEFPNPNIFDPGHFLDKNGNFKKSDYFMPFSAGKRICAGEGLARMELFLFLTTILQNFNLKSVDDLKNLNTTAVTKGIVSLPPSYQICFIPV
Protocol: (§1) These incubations were carried out at a concentration of 1 µM and contained 50 pmol/ml of CYP protein. Samples were taken at 0, 5, 10, 15, 20 and 30 minutes. The CLint and t1/2 were calculated from the data.

CYP2C19 = CYP2C19 (Homo sapiens, UniProt P33261); test: CYP phenotyping, recombinant CYP enzyme incubation
Protocol: as §1

human liver microsomes = test: CYP phenotyping, human liver microsomes with or without specific chemical inhibitors; details: for Inhibition % / % Remaining at 60 min: human liver microsomes; for % Remaining at 60 min: mean ± SD, n = 3
Protocol: Human liver microsomes with or without specific inhibitors: By using human liver microsomes with chemical inhibitor, compared to without chemical inhibitor, the incubation was carried out at a concentration of 1 µM with samples taken 0, 15, 30, 45 and 60 min, and analyzed by UPLC-MS/MS to quantitate the concentration of parent remaining. The % remaining was calculated.

CYP2C19, sequence (P33261 whole entry): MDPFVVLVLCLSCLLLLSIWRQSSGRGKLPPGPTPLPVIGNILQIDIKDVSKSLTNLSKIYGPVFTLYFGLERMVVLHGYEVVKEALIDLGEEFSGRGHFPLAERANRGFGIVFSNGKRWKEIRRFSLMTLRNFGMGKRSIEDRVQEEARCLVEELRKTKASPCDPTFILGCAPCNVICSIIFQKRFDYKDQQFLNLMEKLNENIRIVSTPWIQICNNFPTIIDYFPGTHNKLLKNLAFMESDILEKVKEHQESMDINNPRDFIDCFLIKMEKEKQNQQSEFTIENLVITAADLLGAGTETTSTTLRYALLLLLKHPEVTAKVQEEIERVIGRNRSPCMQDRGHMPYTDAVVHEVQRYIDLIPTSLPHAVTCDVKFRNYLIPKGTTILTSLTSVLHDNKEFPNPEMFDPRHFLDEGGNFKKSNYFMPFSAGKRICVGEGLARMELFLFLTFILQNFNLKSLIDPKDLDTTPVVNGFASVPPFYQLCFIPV

Contribution % (CYP2C8; CYP2C8): 12.8%
contribution % (CYP2C8; CYP2C8): 12.8%
half-life at 1 µM (CYP2C8; human, recombinant CYP2C8, 1 µM, 50 pmol/ml of CYP protein, mean ± SD, n = 3): 57.2 ± 14.4 min
CLint (CYP2C8; recombinant CYP2C8, 1 µM, 50 pmol/ml of CYP protein, mean ± SD, n = 3): 0.254 ± 0.0720 μL/min/pmol CYP
CLint (CYP2C8; recombinant CYP2C8, 1 µM, 50 pmol/ml CYP protein): 0.254 µL/min/pmol
Contribution % (CYP2C19; CYP2C19): 8.01%
contribution % (CYP2C19; CYP2C19): 8.01%
half-life at 1 µM (CYP2C19; human, recombinant CYP2C19, 1 µM, 50 pmol/ml of CYP protein, mean ± SD, n = 3): 25.9 ± 1.68 min
CLint (CYP2C19; recombinant CYP2C19, 1 µM, 50 pmol/ml of CYP protein, mean ± SD, n = 3): 0.537 ± 0.0361 μL/min/pmol CYP
CLint (CYP2C19; recombinant CYP2C19, 1 µM, 50 pmol/ml CYP protein): 0.537 µL/min/pmol
inhibition % of (S)-mepazine metabolism (human liver microsomes; human liver microsomes with inhibitor of CYP2C8): < 20%
Inhibition % (human liver microsomes; CYP1A2 (Furafylline)): 31.6%
% Remaining at 60 min (human liver microsomes; CYP1A2 (Furafylline)): 55.3 ± 4.07%
Inhibition % (human liver microsomes; CYP2A6 (Tranylcypromine)): 25.6%
% Remaining at 60 min (human liver microsomes; CYP2A6 (Tranylcypromine)): 53.4 ± 2.69%
Inhibition % (human liver microsomes; CYP2B6 (Ticlopidine)): 22.8%
% Remaining at 60 min (human liver microsomes; CYP2B6 (Ticlopidine)): 52.6 ± 3.79%
Inhibition % (human liver microsomes; CYP2C8 (Montelukast)): 19.3%
% Remaining at 60 min (human liver microsomes; CYP2C8 (Montelukast)): 50.5 ± 4.24%
Inhibition % (human liver microsomes; CYP2C9 (Sulfaphenazole)): 33.9%
% Remaining at 60 min (human liver microsomes; CYP2C9 (Sulfaphenazole)): 57.4± 2.68%
Inhibition % (human liver microsomes; CYP2C19 (N-3-benzylnirvanol)): 24.3%
% Remaining at 60 min (human liver microsomes; CYP2C19 (N-3-benzylnirvanol)): 53.1 ± 1.75%
Inhibition % (human liver microsomes; CYP2D6 (Quinidine)): 74.4%
% Remaining at 60 min (human liver microsomes; CYP2D6 (Quinidine)): 80.9 ± 3.69%
Inhibition % (human liver microsomes; CYP3A (Ketoconazole)): 21.4%
% Remaining at 60 min (human liver microsomes; CYP3A (Ketoconazole)): 50.2 ± 4.00%
Inhibition % (human liver microsomes; Without inhibitor): 0.00%
% Remaining at 60 min (human liver microsomes; Without inhibitor): 44.7 ± 2.57%
SMILES: CN1CCC[C@H](CN2c3ccccc3Sc3ccccc32)C1 [(S)-mepazine, (S)-10-((1-methylpiperidin-3-yl)methyl)-10H-phenothiazine]
